Measurements reported in patent publication US20050032863A1, “Method of treating or preventing central nervous system disorders with compounds having selectivity for the alpha 3 subunit of the benzodiazepine receptor” (priority 2003, published 2005).
“Also recorded” adds a separate entry of the source.

Tests used:
[1] = system: female Wistar rats, MK-801-induced stereotypies, hyperactivity and ataxia; test: MK-801-induced psychosis-related behaviour and reversibility by flumazenil (Example 7); type: in vivo, rat; conditions: for effect on other stereotypies when flumazenil is added: 30 mg/kg p.o. + flumazenil 5 mg/kg
Experimental: Apart from the haloperidol rats which received haloperidol 30 minutes and MK-801 10 minutes prior to the test, the other test groups received haloperidol, ELB139 or vehicle 60 minutes prior to test, saline or flumazenil 20 minutes prior to test and MK-801 10 minutes prior to test.
The behaviour induced by the NMDA antagonist MK-801 is generally accepted as a rat model of psychosis. MK-801 induces stereotypies, hyperactivity and ataxia in rats after intraperitoneal administration.
Locomotor activity of the rats is recorded by the MotiTest Apparatus (TSE, Bad Homburg, Germany). The test area consisted of a squared arena (45×45 cm) with protective plexiglass walls (20 cm of height) where rats could freely move. Horizontal movements were recorded by 32 infrared photocells arranged along the bottom of each wall of the arena. Vertical movements (rearings) were recorded by a horizontal row of 32 infrared photocells 12 cm above the floor. The following parameters were measured by the computer program “ActiMot” (TSE, Bad Homburg, Germany): • 1. active time [s] • 2. total distance travelled [m]
Stereotypies, divided into stereotyped sniffing and other stereotypies, and ataxia are scored by the experimenter every five minutes for one hour (12 intervals) according to the method described by Andiné et al. (1999). The scores of the 12 intervals are added for each parameter.
The day of experiment the female rats are placed in the laboratory and receive the test compound, the reference substance or vehicle at the appropriate time prior to test. […]
At the beginning of the test the rats are placed in the centre of the squared arena of the MotiTest apparatus. Behaviour of the rats is recorded for one hour. After each run animals are removed and the boxes thoroughly cleaned and dried.

[2] = target: T1, recombinant rat α2β2γ2 GABAA receptors (Rattus norvegicus, UniProt P23576); test: Whole-cell patch-clamp, modulation of GABA (EC20)-induced currents in transfected HEK 293 cells, α2β2γ2; type: cell-based; conditions: α2β2γ2
T1 construct: expressed in transfected cells; host or cells: HEK 293
T1 sequence (P23576 29-451): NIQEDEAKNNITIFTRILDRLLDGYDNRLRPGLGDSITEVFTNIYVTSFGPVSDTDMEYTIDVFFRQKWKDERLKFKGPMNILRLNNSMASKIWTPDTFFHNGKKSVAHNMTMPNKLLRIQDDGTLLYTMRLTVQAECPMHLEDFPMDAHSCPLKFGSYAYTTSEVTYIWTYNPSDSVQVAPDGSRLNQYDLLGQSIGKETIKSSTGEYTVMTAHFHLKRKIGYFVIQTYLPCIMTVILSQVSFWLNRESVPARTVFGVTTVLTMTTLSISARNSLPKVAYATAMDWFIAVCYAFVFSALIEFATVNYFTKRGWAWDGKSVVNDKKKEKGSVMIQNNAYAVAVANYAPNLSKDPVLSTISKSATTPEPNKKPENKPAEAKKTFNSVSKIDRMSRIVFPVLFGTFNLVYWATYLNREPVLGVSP
Experimental: For electrophysiological recording HEK-293 cells were passaged and replated on 12-mm glass coverslips located in 9.6-cm plastic dishes filled with 10 ml of Minimum Essential Medium (MEM, Gibco) supplemented with 158 mg/l sodium bicarbonate, 2 mM glutamine (Gibco), 100 U/ml penicillin-streptomycin (Gibco), and 10% foetal calf serum (Gibco). Cultures were maintained at 37° C. in a humidified […]/5% CO2 atmosphere for 2-3 days.
Transfection with recombinant rat GABAA receptors was carried out as described in detail (Korpi and Lüddens, 1993, Lüddens and Korpi, 1995b). Briefly, HEK 293 cells were transfected in triple combinations using the phosphate precipitation method with rat GABAA receptor cDNAs in eukaryotic expression vectors (Pritchett, 1990) for the α, β and γ subunits. For optimal receptor expression, final concentrations (μg vector DNA per 9.6 cm tissue culture plate) were: α1, 2; α2 4.8; α3, 1.2; α4, 10; α5, 0.8; β2, 0.4; and γ2S, 0.3. The γ2S variant is abbreviated γ2 in the remainder of the text. To identify transfected cells all subunit combinations were co-transfected with 1 μg per plate of pNI-EGFP.
Two days after transfection single coverslips containing HEK 293 cells were placed in a recording chamber mounted on the movable stage of a fluorescence microscope (Olympus IX70) and perfused with a defined saline solution containing (in mM): 130 NaCl, 5.4 KCl, 2 CaCl2, 2 MgSO4, 10 glucose, 5 sucrose, and 10 HEPES (free acid), pH adjusted to 7.35 with about 35 mM NaOH. Transfected cells were identified by their green fluorescence due to the expression of the pNI-EGFP vector and ligand-mediated membrane currents of these cells were studied in the whole-cell configuration of the patch-clamp technique (Hamil et al., 1981). Patch-clamp pipettes were pulled from hard borosilicate capillary glass (0.5 mm ID, 1.5 mm OD, Vitrex, Science Products GmbH, Hofheim, Germany) using a horizontal puller (Sutter Instruments, CA, Model P-97) in a multi-stage process.
Seal resistances >1 GΩ were routinely obtained by applying gentle suction to the pipettes. Membrane rupture was monitored electrically as an increase in capacity. Pipette capacitance, membrane capacitance, and series resistance were electronically compensated to achieve minimal capacitative transients. A series resistance compensation of >60% was regularly used.
In all cells recorded the presence of the γ2 subunit in the heteropentamere was monitored by the application of 1 μM zolpidem plus the EC20 of GABA before testing the experimental drugs.
Responses of the cells were recorded by a patch-clamp amplifier (EPC-8, HEKA-Electronic, Lambrecht, Germany) in conjunction with a standard personal computer and the pClamp 8.1 software package (Axon Instruments, Foster City, Calif.). The standard holding-potential for the cells was −40 mV. Whole cell currents were low-pass filtered by an eight-pole Bessel filter at 5 or 3 kHz before being digitised by a Digidata 1322A interface (Axon Instruments, Foster City, Calif.) and recorded by the computer at a sampling rate of at least […].
Efficacy, potency, and GABAA receptor a subunit specificity of the new compound ELB139 was tested with the whole cell configuration of the patch-clamp technique by applying increasing drug concentration together with GABA of the approximate EC20 on green fluorescing cells. BZ binding site specificity of the new compound was tested on the same cells in an identical experimental setting with additionally applying 10 μM Ro15-1788.

[3] = 30 mg/kg p.o. + flumazenil 5 mg/kg i.p., second trial

## O=C1N=C(N2CCCCC2)CN1c1ccc(Cl)cc1 [ELB139, 1-(4-chlorophenyl)-4-piperidinoimidazolin-2-one]
[1]; 30 mg/kg p.o. + flumazenil 5 mg/kg i.p., all trials and sum
  effect on distance travelled when flumazenil is added: significantly reversed
[1]; 30 mg/kg p.o. + flumazenil 5 mg/kg i.p., both tests and sum
  effect on activity when flumazenil is added: significantly reversed
[1]; 30 mg/kg p.o. + flumazenil 5 mg/kg i.p., first trial and sum of both trials
  effect on stereotyped sniffing when flumazenil is added: significantly reversed
[1]; [3]
  effect on stereotyped sniffing when flumazenil is added: distinctly antagonised
  reducing effect on ataxia when flumazenil is added: reversed
[1]; 30 mg/kg p.o. + flumazenil 5 mg/kg i.p., sum of both trials
  reversing effect of flumazenil on the ataxia effect: marginal
[1]; first trial
  effect on other stereotypies when flumazenil is added: rather amplified
[1]; second trial
  effect on other stereotypies when flumazenil is added: distinctly reversed
[1]; sum of both trials
  effect on other stereotypies when flumazenil is added: no change
[1]; 30 mg/kg p.o., both tests and sum
  MK-801-induced increase of the distance travelled, whole time curve: significantly reduced
[1]; 30 mg/kg p.o., discrete trials and sum of both trials
  MK-801-induced stereotyped sniffing: significantly reversed
[1]; 30 mg/kg p.o., first trial
  MK-801-induced other stereotypies: slightly reduced
[1]; 30 mg/kg p.o., first trial (November 2003)
  MK-801-induced ataxia: hardly affected
[1]; 30 mg/kg p.o., first trial and sum of both tests
  activity induced by MK-801, whole time curve: significantly reduced
[1]; 30 mg/kg p.o., second trial
  activity induced by MK-801, whole time curve: distinctly reduced
[1]; 30 mg/kg p.o., second trial (January 2004)
  MK-801-induced ataxia: more pronounced but still not significant
[1]; 30 mg/kg p.o., second trial and sum of both trials
  MK-801-induced other stereotypies: significantly reversed
[1]; 30 mg/kg p.o., sum of both trials
  MK-801-induced ataxia: only a slight reduction
[2]; ELB139 0.01-30 μM
  modulation of GABA-induced currents (in words): failed to evoke agonistic or inverse agonistic modulation; also recorded: no agonistic effect; also recorded: not at all active
[2]; applied with approximate GABA EC20, read-out: EC50 (ELB139)
  EC50: > 30 µM
